Experiments:
[1] = after subcutaneous administration; cited from earlier work
fasted rabbits = assay: Test for prolongation of insulin effect (hypoglycemic effect, British Pharmacopoeia 1980, A 142); type: in vivo, rabbit; conditions: for Glucose in percent of initial, 1 h / Glucose in percent of initial, 2 h / Glucose in percent of initial, 4 h / Glucose in percent of initial, 6 h: pH 4.5, 14.3 nmole per rabbit s.c.; for Prolongation of action: about 240 nmole/ml
Protocol: Sterile injectable solutions of the compounds of formula I for testing of the degree of prolonged action were made using 1.6% (w/v) glycerol as the isotonicum, using 0.3% (w/v) m-cresol as the preservative, […] The pH values of the solutions were adjusted sufficiently off the isoelectric point of the compounds of formula I to keep the solutions clear upon storage at 4° C. The solutions contained 240 nmole/ml of the compounds of formula I. The concentration of 240 nmole/ml was established by measurement of the absorbance at 276 nm of a more concentrated stock solution devoid of m-cresol, using the molar extinction coefficient for porcine insulin of 6100 for these derivatives (see Handbuch der Inneren Medizin, Vol. 7/Part 2A, Editor: Oberdisse, 1975, 113). […] 1 U corresponds to 5.95 nmole.
Injectable solutions containing 240 nmole/ml of the compounds of formula I stated in Table II and having the pH values and content of zinc stated therein were made.
The prolongation of the hypoglycemic effect produced by the injectable solutions of insulin was tested according to British Pharmacopoeia 1980, A 142, in fasted rabbits. Each test solution was administered subcutaneously in a dosis of 14.3 nmole per rabbit in 12 animals weighing 3-4 kg, and the course of the hypoglycemia was followed for 6 hours.

mouse = assay: Mouse blood sugar depletion test (British Pharmacopoeia 1980, A 141-A 142); type: in vivo; conditions: solutions without additions of zinc (zinc content 8-10 μg/ml from crystals); estimated potencies
Protocol: The potencies of insulin compounds were accessed in the mouse blood sugar depletion test (British Pharmacopoeia 1980, A 141-A 142). In order to minimize the problem of estimating potency of insulins having a timing different from the standard, insulin solutions for potency determinations were made up without additions of zinc. Solutions were made up to contain […] based on the absorbance at 276 nm. The zinc content of solutions were 8-10 μg/ml, arising from the crystalline derivatives.

| Substance | Glucose in percent of initial, 1 h (fasted rabbits; Zn++ 80 μg/ml) | Glucose in percent of initial, 2 h (fasted rabbits; Zn++ 80 μg/ml) | Glucose in percent of initial, 4 h (fasted rabbits; Zn++ 80 μg/ml) | Glucose in percent of initial, 6 h (fasted rabbits; Zn++ 80 μg/ml) | Potency relative to insulin, % (mouse) [%] | further results |
| --- | --- | --- | --- | --- | --- | --- |
| A1,B29-di-Boc substituted insulin |  |  |  |  |  | Prolonged insulin action [1]: too slightly prolonged action to be clinically useful |
| Arg^B27 human insulin [Arg^B27 insulin] | 45% of initial | 34% of initial | 51% of initial | 91% of initial | 87 |  |
| Arg^B27,Lys^B30 --NH2 human insulin [Arg^B27,Lys^B30 --NH2 insulin] | 85% of initial | 83% of initial | 81% of initial | 79% of initial | 84 | Glucose in percent of initial, 1 h (fasted rabbits; Zn++ 10.9 μg/ml): 78% of initial; Glucose in percent of initial, 2 h (fasted rabbits; Zn++ 10.9 μg/ml): 73% of initial; Glucose in percent of initial, 4 h (fasted rabbits; Zn++ 10.9 μg/ml): 69% of initial; Glucose in percent of initial, 6 h (fasted rabbits; Zn++ 10.9 μg/ml): 67% of initial |
| Arg^B27,Thr^B30 --NH2 human insulin [Arg^B27,Thr^B30 --NH2 insulin] | 88% of initial | 86% of initial | 85% of initial | 81% of initial | 92 | Prolongation of action (fasted rabbits; 3 zinc atoms per hexamer, 8 μg zinc/ml): very prolonged action; Glucose in percent of initial, 1 h (fasted rabbits; Zn++ […]): 62% of initial; Glucose in percent of initial, 2 h (fasted rabbits; Zn++ […]): 64% of initial; Glucose in percent of initial, 4 h (fasted rabbits; Zn++ […]): 66% of initial; Glucose in percent of initial, 6 h (fasted rabbits; Zn++ […]): 67% of initial |
| Gln^A4 insulin |  |  |  |  | 79 |  |
| Gln^A17,Arg^B27,Thr^B30 --NH2 human insulin [Gln^A17,Arg^B27,Thr^B30 --NH2 insulin] |  |  |  |  | 71 |  |
| Gln^A17,Arg^B27human insulin [Gln^A17,Arg^B27 insulin] | 53% of initial | 47% of initial | 50% of initial | 66% of initial | 69 |  |
| Gln^A17,Gln^B13,Thr^B30 --NH2 human insulin [Gln^A17,Gln^B13,Thr^B30 --NH2 insulin] |  |  |  |  | 49 |  |
| Gln^A17,Lys^B30 --NH2 human insulin [Gln^A17,Lys^B30 --NH2 insulin] | 60% of initial | 56% of initial | 73% of initial | 86% of initial | 62 |  |
| Gln^A17,Thr^B30 --NH2 human insulin [Gln^A17,Thr^B30 --NH2 insulin] | 65% of initial | 63% of initial | 68% of initial | 83% of initial | 67 |  |
| Gln^B13,Arg^B27 human insulin [Gln^B13,Arg^B27 insulin] | 55% of initial | 46% of initial | 61% of initial | 91% of initial | 78 |  |
| Gln^B13,Arg^B27,Thr^B30 --NH2 human insulin [Gln^B13,Arg^B27,Thr^B30 --NH2 insulin] |  |  |  |  | 62 |  |
| Gln^B13,Gln^A17 human insulin [Gln^A17,Gln^B13 insulin] | 53% of initial | 47% of initial | 55% of initial | 82% of initial | 50 |  |
| Gln^B13,Thr^B30 --NH2 human insulin [Gln^B13,Thr^B30 --NH2 insulin] |  |  |  |  |  | Glucose in percent of initial, 1 h (fasted rabbits; Zn++ […]): 91% of initial; Glucose in percent of initial, 2 h (fasted rabbits; Zn++ […]): 92% of initial; Glucose in percent of initial, 4 h (fasted rabbits; Zn++ […]): 92% of initial; Glucose in percent of initial, 6 h (fasted rabbits; Zn++ […]): 90% of initial |
| Gln^B21 insulin |  |  |  |  | 96 |  |
| Lys^B27 human insulin [Lys^B27 insulin] | 47% of initial | 40% of initial | 55% of initial | 93% of initial | 88 |  |
| Lys^B27,Lys^B30 --NH2 human insulin [Lys^B27,Lys^B30 --NH2 insulin] |  |  |  |  | 56 | Glucose in percent of initial, 1 h (fasted rabbits; Zn++ 9.5 μg/ml): 72% of initial; Glucose in percent of initial, 2 h (fasted rabbits; Zn++ 9.5 μg/ml): 65% of initial; Glucose in percent of initial, 4 h (fasted rabbits; Zn++ 9.5 μg/ml): 65% of initial; Glucose in percent of initial, 6 h (fasted rabbits; Zn++ 9.5 μg/ml): 60% of initial |
| Lys^B27,Thr^B30 --NH2 human insulin [Lys^B27,Thr^B30 --NH2 insulin] |  |  |  |  | 82 | Glucose in percent of initial, 1 h (fasted rabbits; Zn++ […]): 56% of initial; Glucose in percent of initial, 2 h (fasted rabbits; Zn++ […]): 55% of initial; Glucose in percent of initial, 4 h (fasted rabbits; Zn++ […]): 62% of initial; Glucose in percent of initial, 6 h (fasted rabbits; Zn++ […]): 61% of initial |
| Lys^B30 --NH2 insulin | 74% of initial | 83% of initial | 80% of initial | 82% of initial |  | Prolongation of action (fasted rabbits; 30 zinc per hexamer, 80 μg zinc/ml): moderate prolongation of action |

Reference: patent publication US4946828A, “Novel insulin peptides” (Novo Nordisk A/S, priority 1985, dated 1990)
